Data published in patent publication US12365672B2, “Compounds and their use for the treatment of alpha1-antitrypsin deficiency” (CENTESSA PHARMACEUTICALS (UK) LIMITED, priority 2019, dated 2025).

biological target: T1, human Z A1AT (Homo sapiens, UniProt P01009, E366K); assay: A1AT cell secretion assay using HEK-Z cells (ELISA of supernatant); format: cell-based; conditions: 48 h, A1AT in supernatant by ELISA
T1 construct: expressed in transfected cells; host or cells: HEK-Z cells (human embryonic kidney cell line)
T1 sequence (P01009 25-418 E366K): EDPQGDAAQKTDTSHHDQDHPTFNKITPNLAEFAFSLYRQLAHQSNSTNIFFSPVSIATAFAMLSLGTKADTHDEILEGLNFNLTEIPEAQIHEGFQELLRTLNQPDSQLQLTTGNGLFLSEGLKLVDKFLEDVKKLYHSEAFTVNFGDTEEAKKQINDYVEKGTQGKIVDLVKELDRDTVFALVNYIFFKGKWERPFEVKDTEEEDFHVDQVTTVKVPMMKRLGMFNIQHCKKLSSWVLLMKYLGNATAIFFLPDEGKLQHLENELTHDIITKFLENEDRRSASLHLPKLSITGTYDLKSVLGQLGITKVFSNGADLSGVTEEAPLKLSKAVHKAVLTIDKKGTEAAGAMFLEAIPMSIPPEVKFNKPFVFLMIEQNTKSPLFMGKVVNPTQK
Method: HEK-Z cells, a human embryonic kidney cell line stably transfected with the human Z A1AT gene, were plated into 96 well plates (3.0×10^5 cells/ml with 200 μl of media/well) overnight at 37° C. in a humidified atmosphere containing 5% CO2. Following incubation cells were washed with 200 μl serum-free media three times and media was replaced with treatments in quadruplicate using serum free media containing either vehicle, 10 μM suberanilohydroxamic acid (SAHA) or a compound of the invention (at concentrations of 10, 33, 100 and 333 nM) for 48 h in a 37° C. incubator in a final volume of 200 μl. At the end of the incubation step the supernatants were removed from the wells, centrifuged at 1000×g at 4° C. for 10 min and were assayed for human A1AT levels by ELISA (Human Serpin A1/α1-antitrypsin duo set ELISA, R& D Systems, DY1268) per manufacturer's instructions.
Briefly, a 96 well plate was coated with human A1AT capture antibody overnight at room temperature (1:180 dilution from stock, 100 μl final volume/well). The capture antibody was then removed and wells washed three times with 300 μl wash buffer (0.05% Tween 20 in PBS) and then 200 μl reagent diluent ([…]) was incubated in each well for 1 h at room temperature. Diluted samples, standards (125, 250, 500, 1000, 2000, 4000 and 8000 pg/ml A1AT) or blanks were then added to each well in duplicate and the plates were covered with a plate sealer and left at room temperature for 2 h. At the end of the sample incubation step, samples were removed and all wells washed as previously and 100 μl detection antibody (1:180 dilution from stock) was added to each well and incubated for a further 2 h at room temperature. […] After which, 50 μl stop solution (2M H2SO4) was added and optical density (OD) of each well was read at 450 nm with 570 nm blank subtracted from each well using a microplate reader. A 4 parameter logistic curve was constructed using GraphPad Prism 7 and A1AT concentrations were determined in each sample by interpolation from a standard curve and multiplying by the appropriate dilution factor.

Row | SMILES | Median A1AT % increase over vehicle at 300 nM [%]
1 | O=c1c2ccccc2ncn1Cc1ccc(-c2ncco2)cc1 [Example 2, 3-(4-(oxazol-2-yl)benzyl)quinazolin-4(3H)-one] | 140
2 | O=c1cc[nH]c(=O)n1Cc1ccc(-c2ncco2)cc1 [Example 3, 3-(4-(oxazol-2-yl)benzyl)pyrimidine-2,4(1H,3H)-dione] | 180
3 | O=c1ccncn1Cc1ccc(-c2ncco2)cc1 [Example 1, 3-(4-(oxazol-2-yl)benzyl)pyrimidin-4(3H)-one] | 180
